A short description of assay [1]: Inhibition of Plasmodium falciparum DHODH expressed in Escherichia coli BL21-DE3 using L-dihydroorotate as substrate by steady-state DCIP method.
The subject of assay [2] is Plasmodium falciparum.
Assay [3] relates to Plasmodium falciparum. Briefly: microbe, parasite or virus in culture. To be noted: 3D7, 72 h.

As for `CNC(=O)c1cc(C(C)NC(=O)c2[nH]cc(Cc3ccc(C(F)(F)F)nc3)c2C)n[nH]1` (stereo in doubt; form 2), in assay [1], the IC50 was found to be 89000 nM. The midpoint of the response in assay [2], the EC50, lay at 4800 nM. `Cc1cc(C(C)NC(=O)c2[nH]cc(-c3c[nH]c4cc(C(F)(F)F)ccc34)c2C)no1` (stereo in doubt; form 1) gave an IC50 in assay [1] above 100000 nM. The EC50 in assay [2] is above 1000 nM.

Regarding `Cc1c(C2(c3ccc(C(F)F)nc3)CC2)c[nH]c1C(=O)NC(C)c1nc[nH]n1` (stereo in doubt; form 2), the IC50 in assay [1] is above 30000 nM. In assay [2], this compound returned an EC50 above 20000 nM. Taken in the same sequence, the figures for `Cc1cc(C(C)NC(=O)c2[nH]c(C)c(Cc3ccc(C(F)(F)F)nc3)c2C#N)no1` (stereo in doubt; form 1) were 3200 nM and 1800 nM. The like results for `Cc1c(C2(c3ccc(C(F)F)nc3)CC2)c[nH]c1C(=O)NC(C)c1nc[nH]n1` (stereo in doubt; form 1) were, in that order, 150 nM and 180 nM. The compound `CNC(=O)[C@@H](C)NC(=O)c1[nH]cc(Cc2ccc(C(F)(F)F)nc2)c1C` displayed an EC50 in assay [3] of 8900 nM. Also, the IC50 in assay [1] turned out to be 39000 nM. As to `Cc1cc(C(C)NC(=O)c2[nH]cc(-c3n[nH]c4cc(C(F)(F)F)ccc34)c2C)no1` (stereo in doubt; form 1), the IC50 in assay [1] was above 100000 nM. In assay [2], the EC50 is above 10000 nM. On to `Cc1[nH]c(C(=O)NC(C)c2cnn(C)c2)c(C)c1Cc1ccc(C(F)(F)F)nc1` (stereo in doubt; form 1), for which, in assay [1], the IC50 was above 30000 nM. The same compound showed an EC50 in assay [2] above 10000 nM.

In assay [3], `Cc1c(C2(c3ccc(C(F)(F)F)nc3)CC2)c[nH]c1C(=O)NC(C)c1cc(C#N)[nH]n1` (stereo in doubt; form 1) returned an EC50 of 1700 nM.

For `Cc1c(Cc2ccc(C(F)(F)F)nc2)c[nH]c1C(=O)NC(C)c1cc[nH]n1` (racemic), the EC50 in assay [3] was found to be 43 nM. The IC50 in assay [1] was 270 nM. Regarding `Cc1c(C2(c3ccc(C(F)(F)F)nc3)CC2)c[nH]c1C(=O)NC(C)c1cc(C(N)=O)[nH]n1` (stereo in doubt; form 2), the IC50 in assay [1] was determined as 57000 nM. The compound further yielded an EC50 in assay [2] of 9.4 nM. With `Cc1c(C2(c3ccc(C(F)(F)F)nc3)CC2)c[nH]c1C(=O)NC(C)c1cn[nH]c1` (stereo in doubt; form 2), the EC50 in assay [2] is 1.2 nM. `Cc1c(-c2c[nH]c3cc(C(F)(F)F)ccc23)c[nH]c1C(=O)NC1CC1` yielded an EC50 in assay [3] of 190 nM. In assay [1], this compound gave an IC50 of 1600 nM. For the compound `Cc1c(C2(c3ccc(C(F)(F)F)cc3F)CC2)c[nH]c1C(=O)NC(C)c1nc[nH]n1` (stereo in doubt; form 2), the IC50 in assay [1] is above 100000 nM. In addition, the EC50 in assay [2] worked out at 410 nM. `Cc1c(-c2c[nH]c3nc(C(F)(F)F)ccc23)c[nH]c1C(=O)NC(C)c1nc[nH]n1` (stereo in doubt; form 1) returned an IC50 in assay [1] of 510 nM. The compound further came in with an EC50 in assay [2] of 53 nM. `Cc1c(Cc2ccc(F)c(F)c2)c[nH]c1C(=O)NC(C)c1nc[nH]n1` (stereo in doubt; form 2) yielded a 50% inhibitory concentration (IC50) in assay [1] above 100000 nM. The EC50 in assay [2] was above 10000 nM. `Cc1c(Cc2ccc(C(F)(F)F)nc2)c[nH]c1C(=O)NC(C)c1cnn(C)c1` (stereo in doubt; form 2) returned an EC50 in assay [2] of 350 nM. In the case of `Cc1c(-c2c[nH]c3cc(C(F)(F)F)ccc23)c[nH]c1C(=O)NCC(F)(F)F`, the EC50 in assay [3] was found to be 1200 nM. In addition, in assay [1], the IC50 came to 18000 nM.

Consider `Cc1c(Cc2ccc(S(=O)(=O)N(C)C)cc2)c[nH]c1C(=O)NC1CC1`, for which the EC50 in assay [3] stood at 700 nM. For the same compound, the IC50 in assay [1] was 1500 nM. Compound `Cc1c(Cc2ccc(C(F)(F)F)nc2)c[nH]c1C(=O)NC(C)c1cc(C#N)[nH]n1` (stereo in doubt; form 2) came in with an IC50 in assay [1] of 54000 nM. This compound also had an EC50 in assay [2] of 6100 nM.

Compound `Cc1c(Cc2cccc(F)c2C#N)c[nH]c1C(=O)NC(C)c1nc[nH]n1` (racemic) showed an EC50 in assay [3] of 1100 nM. This compound came in with an IC50 in assay [1] of 480 nM. Turning to `Cc1cc(C(C)NC(=O)c2[nH]cc(Cc3ccc(C(F)(F)F)cc3)c2C)no1` (stereo in doubt; form 2), the midpoint of inhibition in assay [1], the IC50, lay at 48000 nM. This compound also registered a concentration for a half-maximal effect (EC50) in assay [2] of 6200 nM. In turn, `Cc1c(-c2n[nH]c3cc(C(F)(F)F)ccc23)c[nH]c1C(=O)N1CC(F)(F)C1` registered an EC50 in assay [3] of 480 nM. In assay [1], this compound gave an IC50 of 3600 nM. Taken in the same sequence, the figures for `Cc1c(Cc2ccc(C(F)(F)F)nc2)c[nH]c1C(=O)NC(C)c1ncn(C)n1` (racemic) were 13000 nM and 4000 nM. The like results for `COC1COCC1NC(=O)c1[nH]cc(Cc2ccc(C(F)(F)F)nc2)c1C` (stereo not drawn) were, in that order, 1100 nM and 17000 nM. As for `NC(=O)c1c(Cc2ccc(C(F)(F)F)nc2)c[nH]c1C(=O)NC1CC1`, the EC50 in assay [3] was 2100 nM. Also, in assay [1], the IC50 amounted to 4900 nM.

On to `Cc1cc(C(C)NC(=O)c2[nH]cc(C3(c4ccc(C(F)(F)F)nc4)CC3)c2C)n[nH]1` (stereo in doubt; form 1), for which, in assay [3], the EC50 came to 3300 nM.

`Cc1[nH]c(C(=O)N[C@H](C)c2cn[nH]c2)c(C#N)c1Cc1ccc(C(F)(F)F)nc1` (stereo in doubt; form 1): the IC50 in assay [1] turned out to be 42000 nM. Moreover, the EC50 in assay [2] was above 1000 nM. The like results for `Cc1c(C2(c3ccc(C(F)(F)F)c(F)c3)CC2)c[nH]c1C(=O)NC(C)c1nc[nH]n1` (stereo in doubt; form 2) were, in that order, 34000 nM and 5400 nM.

`Cc1c(Cc2ccc(C(F)(F)F)nc2C#N)c[nH]c1C(=O)NC(C)c1nc[nH]n1` (racemic) yielded a concentration giving a half-maximal response (EC50) in assay [3] of 2300 nM. The compound further returned an IC50 in assay [1] of 1900 nM.

`Cc1cc(C(C)NC(=O)c2[nH]cc(Cc3ccc(C(F)(F)F)nc3)c2C)no1` (stereo in doubt; form 2) had an EC50 in assay [2] of 450 nM. On to `Cc1c(Cc2ccc(C(F)(F)F)nc2)c[nH]c1C(=O)NC(C)c1cc(C(N)=O)[nH]n1` (stereo in doubt; form 2), for which the IC50 in assay [1] is 33000 nM. In addition, in assay [2], the midpoint of the response, the EC50, lay at 16000 nM. Compound `Cc1c(Cc2ccc(C(F)(F)F)nc2)c[nH]c1C(=O)NC1COC1` yielded an EC50 in assay [3] of 74 nM. For the same compound, in assay [1], half-maximal inhibition (IC50) required 110 nM. `CNC(=O)c1cc(C(C)NC(=O)c2[nH]cc(Cc3ccc(C(F)(F)F)nc3)c2C)n[nH]1` (stereo in doubt; form 1) yielded a half-maximal inhibitory concentration (IC50) in assay [1] of 1000 nM. Moreover, the concentration giving a half-maximal response (EC50) in assay [2] worked out at 170 nM. The compound `Cc1c(-c2n[nH]c3cc(C(F)(F)F)ccc23)c[nH]c1C(=O)NC1CC1` had an EC50 in assay [3] of 250 nM. This compound also came in with an IC50 in assay [1] of 4100 nM.

For the compound `Cc1c(C2(c3ccc(C(F)(F)F)cc3F)CC2)c[nH]c1C(=O)NC(C)c1nc[nH]n1` (stereo in doubt; form 1), half-maximal inhibition in assay [1] (IC50) required 1200 nM. In addition, in assay [2], the EC50 came out at 12000 nM.

In the case of `Cc1c(-c2c[nH]c3nc(C(F)(F)F)ccc23)c[nH]c1C(=O)N1CC(F)(F)C1`, the midpoint of the response in assay [3], the EC50, lay at 32 nM. Besides, the IC50 in assay [1] stood at 110 nM. For `COC(=O)c1c(Cc2ccc(C(F)(F)F)nc2)c[nH]c1C(=O)NC1CC1`, the EC50 in assay [3] is 1400 nM. This compound had an IC50 in assay [1] of 6400 nM. With `Cc1[nH]c(C(=O)NC(C)c2nc[nH]n2)c(C)c1Cc1ccc(C(F)(F)F)nc1` (stereo in doubt; form 2), in assay [1], half-maximal inhibition (IC50) required 43000 nM. Besides, the response in assay [2] was half-maximal at 750 nM (EC50).

For `Cc1c(C2(c3cccc(C(F)(F)F)c3)CC2)c[nH]c1C(=O)NC(C)c1nc[nH]n1` (stereo in doubt; form 2), the IC50 in assay [1] was above 30000 nM. In addition, a half-maximal response in assay [2] (EC50) required 2800 nM. The like results for `Cc1c(Cc2ccc(F)c3ccncc23)c[nH]c1C(=O)NC(C)c1nc[nH]n1` (stereo in doubt; form 2) were, in that order, 23000 nM and 2300 nM. For the compound `Cc1c(C2(c3ccc(C(F)(F)F)nc3)CC2)c[nH]c1C(=O)NC(C)c1cn[nH]c1` (stereo in doubt; form 1), in assay [2], the concentration for a half-maximal effect (EC50) was 1300 nM.

In the case of `Cc1c(C(=O)NC(C)c2nc[nH]n2)[nH]c(Cl)c1Cc1ccc(C(F)(F)F)nc1` (stereo in doubt; form 1), the IC50 in assay [1] was above 100000 nM. Also, the EC50 in assay [2] was above 10000 nM. As for `Cc1cc(C(C)NC(=O)c2[nH]c(C)c(Cc3ccc(C(F)(F)F)nc3)c2C)no1` (stereo in doubt; form 2), it took 53000 nM to reach half-maximal inhibition in assay [1] (IC50). In assay [2], the EC50 was above 1000 nM. Taken in the same sequence, the figures for `CNC(=O)c1cc(C(C)NC(=O)c2[nH]cc(C3(c4ccc(C(F)(F)F)nc4)CC3)c2C)n[nH]1` (stereo in doubt; form 2) were 55000 nM and 44 nM.

`Cc1c(Cc2ccc(F)c(F)c2)c[nH]c1C(=O)NC(C)c1nc[nH]n1` (stereo in doubt; form 1) gave an IC50 in assay [1] of 400 nM. Further, in assay [2], the EC50 came to 720 nM.

With `Cc1c(Cc2ccc(C(F)(F)F)nc2)c[nH]c1C(=O)NC(C)c1cn[nH]c1` (stereo in doubt; form 2), it took 6400 nM to reach half-maximal inhibition in assay [1] (IC50). Further, in assay [2], the concentration for a half-maximal effect (EC50) came to 370 nM. In the case of `Cc1c(-c2c[nH]c3nc(C(F)(F)F)ccc23)c[nH]c1C(=O)NC(C)c1nc[nH]n1` (stereo in doubt; form 2), half-maximal inhibition in assay [1] (IC50) required 25000 nM. This compound gave an EC50 in assay [2] of 2000 nM. In the case of `Cc1[nH]c(C(=O)NC(C)c2cn[nH]c2)c(C)c1Cc1ccc(C(F)(F)F)nc1` (stereo in doubt; form 2), the IC50 in assay [1] came to 11000 nM. The same compound had an EC50 in assay [2] of 190 nM. For `Cc1c(Cc2ccc(C(F)(F)F)cc2F)c[nH]c1C(=O)NC(C)c1nc[nH]n1` (stereo in doubt; form 2), half-maximal inhibition in assay [1] (IC50) was put at 36000 nM. The compound further registered an EC50 in assay [2] of 5800 nM.

`Cc1c(Cc2ccc(C(F)(F)F)nc2)c[nH]c1C(=O)NC(C)c1nc[nH]n1` (stereo in doubt; form 2) registered an IC50 in assay [1] above 100000 nM. Besides, in assay [2], the EC50 came to 16000 nM.

In the case of `CNC(=O)c1cc(C(C)NC(=O)c2[nH]cc(C3(c4ccc(C(F)(F)F)nc4)CC3)c2C)n[nH]1` (stereo in doubt; form 1), the IC50 in assay [1] amounted to 390 nM. Moreover, a half-maximal effect in assay [2] (EC50) was put at 520 nM.

Turning to `Cc1c(C(=O)NC(C)c2nc[nH]n2)[nH]c(Cl)c1Cc1ccc(C(F)(F)F)nc1` (stereo in doubt; form 3), the IC50 in assay [1] amounted to 64000 nM. `Cc1cc(C(C)NC(=O)c2[nH]cc(C3(c4ccc(C(F)(F)F)nc4)CC3)c2C)no1` (stereo in doubt; form 2) registered an IC50 in assay [1] of 80000 nM. The EC50 in assay [2] was 1.2 nM. Turning to `Cc1cc(C(C)NC(=O)c2[nH]cc(Cc3ccc(C(F)(F)F)nc3)c2C)n[nH]1` (stereo in doubt; form 2), in assay [1], the midpoint of inhibition, the IC50, lay at 68000 nM. Also, the EC50 in assay [2] is above 10000 nM.

As a reminder, the IC50 is the concentration at which inhibition is half-maximal. For orientation: EC50 means the concentration that produces a half-maximal response.

The values are drawn from ChEMBL document CHEMBL4811258, “Potent Antimalarials with Development Potential Identified by Structure-Guided Computational Optimization of a Pyrrole-Based Dihydroorotate Dehydrogenase Inhibitor Series” (J Med Chem, 2021).
